Columns and labels:
Assay in all cases: relative viability (nuclei count vs DMSO), 5 days (fraction); higher = more cells survive
R406 + Palbociclib = compound: COc1cc(Nc2ncc(F)c(Nc3ccc4c(n3)NC(=O)C(C)(C)O4)n2)cc(OC)c1OC [R406] + CC(=O)c1c(C)c2cnc(Nc3ccc(N4CCNCC4)cn3)nc2n(C2CCCC2)c1=O [Palbociclib] (partner 0.5 µM)
Summary of the method: (§1)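 Lung cancer cell lines were pin-tool dosed in 1536-well plates on the day after seeding, with either a lone drug or a fixed anchor-drug dose plus five library-drug doses (not always all listed) in √10 steps. Nuclei were counted on 4× images after 5 days. Relative viability is the ratio of treated-well to vehicle-well nuclei counts, with each value a median of duplicate plates.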

Daporinad + Bortezomib = compound: O=C(/C=C/c1cccnc1)NCCCCC1CCN(C(=O)c2ccccc2)CC1 [Daporinad] + CC(C)C[C@H](NC(=O)[C@H](Cc1ccccc1)NC(=O)c1cnccn1)B(O)O [Bortezomib] (partner 0.002 µM)
Summary of the method: as §1

Daporinad + Vorinostat = compound: O=C(/C=C/c1cccnc1)NCCCCC1CCN(C(=O)c2ccccc2)CC1 [Daporinad] + O=C(CCCCCCC(=O)Nc1ccccc1)NO [Vorinostat] (partner 1 µM)
Summary of the method: as §1

R406 + Crizotinib = compound: COc1cc(Nc2ncc(F)c(Nc3ccc4c(n3)NC(=O)C(C)(C)O4)n2)cc(OC)c1OC [R406] + C[C@@H](Oc1cc(-c2cnn(C3CCNCC3)c2)cnc1N)c1c(Cl)ccc(F)c1Cl [Crizotinib] (partner 1 µM)
Summary of the method: as §1

| Cell Line | relative viability (R406 + Palbociclib; first compound 0.08 µM) | relative viability (R406 + Palbociclib; first compound 0.253 µM) | relative viability (R406 + Palbociclib; first compound 0.8 µM) | relative viability (R406 + Palbociclib; first compound 2.53 µM) | relative viability (R406 + Palbociclib; first compound 8 µM) | relative viability (Daporinad + Bortezomib; first compound 0.0005 µM) | relative viability (Daporinad + Bortezomib; first compound 0.001581 µM) | relative viability (Daporinad + Bortezomib; first compound 0.005 µM) | relative viability (Daporinad + Bortezomib; first compound 0.01581 µM) | relative viability (Daporinad + Vorinostat; first compound 0.0005 µM) | relative viability (Daporinad + Vorinostat; first compound 0.001581 µM) | relative viability (Daporinad + Vorinostat; first compound 0.005 µM) | relative viability (Daporinad + Vorinostat; first compound 0.01581 µM) | relative viability (R406 + Crizotinib; first compound 0.08 µM) | relative viability (R406 + Crizotinib; first compound 0.253 µM) | relative viability (R406 + Crizotinib; first compound 0.8 µM) | relative viability (R406 + Crizotinib; first compound 2.53 µM) | relative viability (R406 + Crizotinib; first compound 8 µM) |
| --- | --- | --- | --- | --- | --- | --- | --- | --- | --- | --- | --- | --- | --- | --- | --- | --- | --- | --- |
| PC-3 [JPC-3] | 0.518 | 0.591 | 0.582 | 0.549 | 0.45 | 0.85 | 0.864 | 0.844 | 0.827 | 0.604 | 0.818 | 1.06 | 0.921 | 1.04 | 1 | 1.02 | 0.98 | 0.885 |
| PC-14 | 0.58 | 0.666 | 0.735 | 0.346 | 0.146 | 0.845 | 0.891 | 0.988 | 0.533 | 0.519 | 0.863 | 0.898 | 0.472 | 0.92 | 1.06 | 0.862 | 0.79 | 0.687 |
| RERF-LC-KJ | 1.04 | 1.19 | 1.07 | 0.883 | 0.86 | 0.996 | 1.05 | 1.45 | 1.26 | 0.659 | 0.795 | 0.814 | 0.701 | 0.762 | 0.838 | 0.875 | 0.81 | 0.771 |
| SK-LU-1 | 0.392 | 0.423 | 0.367 | 0.258 | 0.191 | 0.921 | 1.34 | 1.16 | 1.61 | 0.851 | 0.85 | 0.919 | 0.788 | 0.997 | 1.07 | 1.15 | 0.424 | 0.155 |
| SW 1573 | 0.402 | 0.364 | 0.467 | 0.32 | 0.127 | 1.12 | 0.769 | 1.05 | 0.714 | 0.715 | 1.12 | 0.535 | 0.305 | 0.747 | 1 | 0.769 | 0.653 | 0.579 |
